Assay results from patent US8263656B2 (Hoffmann-La Roche Inc., priority 2008, dated 2012).

Experiments:
human CRTH2 = biological target: T1, human CRTH2 (Homo sapiens, UniProt Q9Y5Y4); assay: Human CRTH2 Receptor Binding Assay (whole cell, [3H]ramatroban competition); conditions: CHO-K1 cells expressing human CRTH2 and G-alpha16; 20 nM [3H]ramatroban; 1 hour, room temperature
T1 construct: expressed in transfected cells
T1 sequence (Q9Y5Y4 1-395): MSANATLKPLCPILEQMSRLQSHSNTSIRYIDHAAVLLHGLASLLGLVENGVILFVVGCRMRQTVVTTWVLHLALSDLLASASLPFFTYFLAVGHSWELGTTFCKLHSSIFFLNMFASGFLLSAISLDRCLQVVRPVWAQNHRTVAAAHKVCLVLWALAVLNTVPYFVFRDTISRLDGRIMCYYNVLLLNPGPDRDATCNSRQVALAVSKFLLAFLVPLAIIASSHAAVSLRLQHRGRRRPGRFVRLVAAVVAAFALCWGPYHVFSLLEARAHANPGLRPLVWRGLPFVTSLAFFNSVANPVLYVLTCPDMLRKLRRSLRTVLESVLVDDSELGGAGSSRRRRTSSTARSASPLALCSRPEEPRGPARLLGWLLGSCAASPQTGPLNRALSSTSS
In short: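 CHO-K1 cells stably expressing human CRTH2 and G-alpha16 (1.5×10^5 cells) incubated 1 h at room temperature with 20 nM [3H]ramatroban in PBS, 10 mM MgCl2, 0.06% BSA, then filtered and counted. Non-specific binding defined with 10 μM 15(R)-15-methyl PGD2; IC50 from 7-concentration 4-parameter logistic fit of specific-binding inhibition.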

[1] = test system: DK-PGD2-induced IL-13 production in T helper type 2 (Th2) cells; assay: DK-PGD2-Induced IL-13 Production Assay in Th2 Cells; type: cell-based; conditions: human Th2 cells, 500 nM DK-PGD2, 4 hrs at 37° C., ELISA; unit inferred; read-out: IC50 of inhibiting IL-13 production (values greater than 10)
Procedure: Inhibition of 13,14-dihydro-15-keto Prostaglandin D2 (DK-PGD2)-induced IL-13 production in T helper type 2 (Th2) cells was applied to evaluate compound cellular potency.
Cultures of Th2 cells were established from blood of healthy human volunteers according to the following procedure. Peripheral blood mononuclear cells (PBMC) were first isolated from 50 mL of fresh blood by Ficoll-Hypaque density gradient centrifugation, followed by CD4^+ cell purification using a CD4^+ T Cell Isolation Kit II (from Miltenyi Biotec Inc.). The CD4^+ T cells were then differentiated to Th2 cells by culturing the cells in X-VIVO 15® medium (from Cambrex BioScience Walkersville Inc.) containing 10% human AB serum (serum of blood type AB from Invitrogen Corporation), 50 U/mL of recombinant human interleukin-2 (rhIL-2) (from PeproTech Inc.) and 100 ng/mL of recombinant human interleukin-4 (rhIL-4) (from PeproTech Inc.) for 7 days. The Th2 cells were isolated using a CD294 (CRTH2) MicroBead Kit (from Miltenyi Biotec Inc.) and amplified in X-VIVO 15® medium containing 10% human AB serum and 50 U/mL of rhIL-2 for 2 to 5 weeks. In general, 70% to 80% of the Th2 cells used in the assay are CRTH2-positive when analyzed by fluorescence-activated cell sorting using the BM16 antibody (as previously described) conjugated to phycoerythrin (PE).
The spontaneous production of IL-13 by Th2 cells was determined in the absence of DK-PGD2 stimulation and the value was subtracted from that in the presence of each compound for percent inhibition and IC50 calculations.
The percent inhibition of interleukin 13 (IL-13) production for a compound at various concentrations was calculated according to the following formula, [1-(IL-13 production in the presence of compound)/(IL-13 production in the presence of 0.15% DMSO)]×100. The IC50 value, defined as the concentration of a compound that is required for 50% inhibition of IL-13 production, was calculated by fitting the percent inhibition data for 7 concentrations to a sigmoidal dose-response (4 parameter logistic) model in the XLfit® software Excel add-in program [ID Business Solutions Ltd., model 205, where F(x)=(A+(B−A)/(1+((C/x)^D)))].

IC50 (human CRTH2): 195 nM | IC50 [1]: > 10000 nM
SMILES: CC(C)c1ccc2c(c1OCC(=O)O)CCCC2NS(=O)(=O)c1cc(C(F)(F)F)cc(C(F)(F)F)c1 (centres unmarked) [Example 1-2, [5-(3,5-Bis-trifluoromethyl-benzenesulfonyl-amino)-2-isopropyl-5,6,7,8-tetrahydro-naphthalen-1-yloxy]-acetic acid]
